Measured values as given in US11236106B2, “Cycloalkane-1,3-diamine derivative” (Daiichi Sankyo Company, Limited, priority 2018, dated 2022).
Counter-ions that a name gives are not always drawn.

Biological target: T1, menin and MLL (menin, Flag tagged; biotinylated MLL1 peptide 1-46aa) (Homo sapiens, UniProt O00255)
T1 sequence (O00255 1-610): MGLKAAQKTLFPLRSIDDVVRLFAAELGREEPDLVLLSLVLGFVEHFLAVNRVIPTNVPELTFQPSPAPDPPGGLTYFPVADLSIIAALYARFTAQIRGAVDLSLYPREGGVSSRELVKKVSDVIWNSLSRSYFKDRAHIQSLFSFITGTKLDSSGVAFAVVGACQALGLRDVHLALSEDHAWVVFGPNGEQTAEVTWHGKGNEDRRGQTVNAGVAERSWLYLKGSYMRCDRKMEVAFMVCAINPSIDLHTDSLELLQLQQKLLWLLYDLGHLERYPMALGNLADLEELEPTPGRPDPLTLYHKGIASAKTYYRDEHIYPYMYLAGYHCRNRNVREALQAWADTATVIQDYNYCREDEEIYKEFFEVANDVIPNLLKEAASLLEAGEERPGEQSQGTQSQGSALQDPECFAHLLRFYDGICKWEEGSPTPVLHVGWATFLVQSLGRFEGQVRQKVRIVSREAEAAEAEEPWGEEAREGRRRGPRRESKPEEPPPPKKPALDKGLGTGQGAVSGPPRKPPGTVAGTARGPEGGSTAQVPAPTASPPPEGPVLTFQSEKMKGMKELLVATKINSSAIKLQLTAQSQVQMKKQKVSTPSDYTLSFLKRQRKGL
Experiment: biochemical
Conditions: AlphaLISA, 1 nM menin, 10 nM biotinylated MLL1 peptide

[1] = IC50, binding inhibitory activity between menin and MLL

Experimental: Then, the fluorescence signal by AlphaLISA (registered trademark, PerkinElmer Co., Ltd.) was measured using a plate reader (PerkinElmer Co., Ltd., EnVisionXcite).

## COc1cc(-c2ccc(CN[C@H]3C[C@@H](O)[C@@H](N(C)c4ncnc5sc(CC(F)(F)F)cc45)C3)cc2)cnc1C(F)(F)F [Example 88, (1R,2S,4R)-4-[({4-[5-methoxy-6-(trifluoromethyl)pyridin-3-yl]phenyl}methyl)amino]-2-{methyl[6-(2,2,2-trifluoroethyl)thieno[2,3-d]pyrimidin-4-yl]amino}cyclopentan-1-ol hydrochloride]
[1]
  IC50: 27.8 nM

## COc1cc(-c2ccc(CN[C@H]3CC[C@H](OC)[C@@H](Nc4ncnc5sc(CC(F)(F)F)cc45)C3)cc2)nnc1OC [Example 126, (1S,3S,4S)—N^1-{[4-(5,6-dimethoxypyridazin-3-yl)phenyl]methyl}-4-methoxy-N^3-[6-(2,2,2-trifluoroethyl)thieno[2,3-d]pyrimidin-4-yl]cyclohexane-1,3-diamine Hydrochloride]
[1]
  IC50: 7.5 nM

## COc1cc(-c2ccc(CN[C@H]3C[C@@H](O)[C@@H](N(C)c4ncnc5sc(CC(F)(F)F)cc45)C3)cc2)nnc1Oc1cccnc1 [Example 107, (1R,2S,4R)-4-{[(4-{5-methoxy-6-[(pyridin-3-yl)oxy]pyridazin-3-yl}phenyl)methyl]amino}-2-{methyl[6-(2,2,2-trifluoroethyl)thieno[2,3-d]pyrimidin-4-yl]amino}cyclopentan-1-ol hydrochloride]
[1]
  IC50: 1.3 nM

## CN(c1ncnc2sc(CC(F)(F)F)cc12)[C@@H]1CC[C@H](NCc2ccc(Nc3cnn(C)c3)cc2)C1 [Example 12, (1R,3S)—N^1-methyl-N^3-({4-[(1-methyl-1H-pyrazol-4-yl)amino]phenyl}methyl)-N^1-[6-(2,2,2-trifluoroethyl)thieno[2,3-d]pyrimidin-4-yl]cyclopentane-1,3-diamine]
Cell free IC50 (nM)
  IC50: 33.8 nM

## CN(c1ncnc2sc(CC(F)(F)F)cc12)[C@@H]1CC[C@H](NCc2ccc(S(=O)(=O)c3ccccc3)cc2)C1 [Example 53, (1R,3S)N^3-{[4-(benzenesulfonyl)phenyl]methyl}N^1-methyl-N^1-[6-(2,2,2-trifluoroethyl)thieno[2,3-d]pyrimidin-4-yl]cyclopentane-1,3-diamine hydrochloride]
Cell free IC50 (nM)
  IC50: 17.7 nM

## CNc1nc(N(C)[C@H]2C[C@@H](NCc3ccc(-c4cnn(S(C)(=O)=O)c4)cc3)C[C@H]2O)c2cc(CC(F)(F)F)sc2n1 [Example 62, (1R,2S,4R)-4[({4[1-(methanesulfonyl)-1H-pyrazol-4-yl]phenyl}methyl)amino]-2-{methyl[2-(methylamino)-6-(2,2,2-trifluoroethyl)thieno[2,3-d]pyrimidin-4-yl]amino}cyclopentan-1-ol hydrochloride]
[1]
  IC50: 2 nM

## CNc1nc(N(C)[C@H]2C[C@@H](NCc3ccc(-c4cncc5c4ccn5S(C)(=O)=O)cc3)C[C@H]2O)c2cc(CC(F)(F)F)sc2n1 [Example 64, (1R,2S,4R)-4[({4-[1-(methanesulfonyl)-1H-pyrrolo[2,3-c]pyridin-4yl]phenyl}methyl)amino]-2-{methyl[2-(methylamino)-6-(2,2,2trifluoroethyl)thieno[2,3-d]pyrimidin-4-yl]amino}cyclopentan-1-ol hydrochloride]
[1]
  IC50: 2.2 nM

## CN(c1ncnc2sc(CC(F)(F)F)cc12)[C@H]1C[C@@H](NCc2ccc(-c3cccc(N(C)S(C)(=O)=O)c3)cc2)C[C@H]1O [Example 71, N-[4′-({[(1R,3R,4S)-3-hydroxy-4-{methyl[6-(2,2,2-trifluoroethyl)thieno[2,3-d]pyrimidin-4-yl]amino}cyclopentyl]amino}methyl)[1,1′-biphenyl]-3-yl]-N-methylmethanesulfonamide hydrochloride]
[1]
  IC50: 0.6 nM

## COc1cncc(-c2ccc(CN[C@H]3C[C@@H](Nc4ncnc5sc(CC(F)(F)F)cc45)C[C@@H](C(=O)N(C)C)C3)cc2)c1 (single isomer, unassigned) [Example 17A, Hydrochloride]
Cell free IC50 (nM)
  IC50: 2260 nM

## COc1cnc(-c2ccc(CN[C@H]3C[C@@H](O)[C@@H](N(C)c4ncnc5sc(CC(F)(F)F)cc45)C3)cc2)nc1OC [Example 97, (1R,2S,4R)-4-({[4-(4,5-dimethoxypyrimidin-2-yl)phenyl]methyl}amino)-2-{methyl[6-(2,2,2-trifluoroethyl)thieno[2,3-d]pyrimidin-4-yl]amino}cyclopentan-1-ol hydrochloride]
[1]
  IC50: 3.9 nM

## COc1nc(N(C)[C@H]2C[C@@H](NCC3CCN(c4cc(OC)c(OC)nn4)CC3)C[C@H]2O)c2cc(CC(F)(F)F)sc2n1 [Example 115, (1R,2S,4R)-4-({[1-(5,6-dimethoxypyridazin-3-yl)piperidin-4-yl]methyl}amino)-2-{[2-methoxy-6-(2,2,2-trifluoroethyl)thieno[2,3-d]pyrimidin-4-yl](methyl)amino}cyclopentan-1-ol hydrochloride]
[1]
  IC50: 10.9 nM

## CN(c1ncnc2sc(CC(F)(F)F)cc12)[C@@H]1CC[C@H](NCc2ccc(OCCO)c(F)c2)C1 [Example 31, 2-[2-fluoro-4-({[(1S,3R)-3-{methyl[6-(2,2,2-trifluoroethyl)thieno[2,3-d]pyrimidin-4-yl]amino}cyclopentyl]amino}methyl)phenoxy]ethan-1-ol hydrochloride]
Cell free IC50 (nM)
  IC50: 46.4 nM

## O=C1CCC(c2ccc(CN[C@H]3CCC[C@@H](Nc4ncnc5sc(CC(F)(F)F)cc45)C3)cc2)N1 (mixture of isomers) [Example 39, 5-[4-({[(1S,3R)-3-{[6-(2,2,2-trifluoroethyl)thieno[2,3-d]pyrimidin-4-yl[amino}cyclohexyl]amino}methyl)phenyl]pyrrolidin-2-one hydrochloride (diastereomer mixture)]
Cell free IC50 (nM)
  IC50: 2070 nM

## COc1cc(-c2ccc(CN[C@H]3C[C@@H](O)[C@@H](N(C)c4ncnc5sc(CC(F)(F)F)cc45)C3)cc2)nnc1C#N [Example 99, 6-[4-({[(1R,3R,4S)-3-hydroxy-4-{methyl[6-(2,2,2-trifluoroethyl)thieno[2,3-d]pyrimidin-4-yl]amino}cyclopentyl]amino}methyl)phenyl]-4-methoxypyridazine-3-carbonitrile hydrochloride]
[1]
  IC50: 1.1 nM

## COCc1cc2c(N(C)[C@@H]3CC[C@H](NCc4ccc(-c5cncc(OC)c5)cc4)C3)ncnc2s1 [Example 47, (1R,3S)-N^1-[6-(methoxymethyl)thieno[2,3-d]pyrimidin-4-yl]-N^3-{[4-(5-methoxypyridin-3-yl)phenyl]methyl}-N^1-methylcyclopentane-1,3-diamine hydrochloride]
Cell free IC50 (nM)
  IC50: 97.2 nM

## COc1cc(-c2ccc(CN[C@H]3C[C@@H](O)[C@@H](N(C)c4ncnc5sc(CC(F)(F)F)cc45)C3)c(C)c2)cnc1OC [Example 78, (1R,2S,4R)-4-({[4-(5,6-dimethoxypyridin-3-yl)-2-methylphenyl]methyl}amino)-2-{methyl[6-(2,2,2-trifluoroethyl)thieno[2,3-d]pyrimidin-4-yl]amino}cyclopentan-1-ol hydrochloride]
[1]
  IC50: 8.5 nM

## CNc1nc(N(C)[C@H]2C[C@@H](NCc3ccc(-c4cc(F)c(F)c(OC)c4)cc3)C[C@H]2O)c2cc(CC(F)(F)F)sc2n1 [Example 82, (1R,2S,4R)-4-{[(3′,4′-difluoro-5′-methoxy[1,1′-biphenyl]-4-yl)methyl]amino}-2-{methyl[2-(methylamino)-6-(2,2,2-trifluoroethyl)thieno[2,3-d]pyrimidin-4-yl]amino}cyclopentan-1-ol hydrochloride]
[1]
  IC50: 22.8 nM

## CNc1ncc(-c2ccc(CN[C@H]3C[C@@H](O)[C@@H](N(C)c4ncnc5sc(CC(F)(F)F)cc45)C3)cc2)cc1OC [Example 92, (1R,2S,4R)-4-[({4-[5-methoxy-6-(methylamino)pyridin-3-yl]phenyl}methyl)amino]-2-{methyl[6-(2,2,2-trifluoroethyl)thieno[2,3-d]pyrimidin-4-yl]amino}cyclopentan-1-ol hydrochloride]
[1]
  IC50: 1.5 nM

## COc1cncc(-c2ccc(CN[C@H]3CC[C@@H](N(C)c4ncnc5sc(CC6CC6)cc45)C3)cc2)c1 [Example 9, (1R,3S)—N^1-[6-(cyclopropylmethyl)thieno[2,3-d]pyrimidin-4-yl]-N^3-{[4-(5-methoxypyridin-3-yl)phenyl]methyl}-N^1-methylcyclopentane-1,3-diamine Hydrochloride]
Cell free IC50 (nM)
  IC50: 22.2 nM

## CN(c1ncnc2sc(CC(F)(F)F)cc12)[C@@H]1CC[C@H](NCc2ccc(-c3ccc(=O)[nH]c3)cc2)C1 [Example 11, 5-[4-({[(1S,3R)-3-{methyl[6-(2,2,2-trifluoroethyl)thieno[2,3-d]pyrimidin-4-yl]amino}cyclopentyl]amino}methyl)phenyl]pyridin-2(1H)-one Hydrochloride]
Cell free IC50 (nM)
  IC50: 63.9 nM

## COc1nc(N(C)[C@H]2C[C@@H](NCc3ccc(-c4nn(C(F)F)c(=O)cc4OC)cc3)C[C@H]2O)c2cc(CC(F)(F)F)sc2n1 [Example 111, 2-(difluoromethyl)-6-[4-({[(1R,3R,4S)-3-hydroxy-4-{[2-methoxy-6-(2,2,2-trifluoroethyl)thieno[2,3-d]pyrimidin-4-yl](methyl)amino}cyclopentyl]amino}methyl)phenyl]-5-methoxypyridazin-3(2H)-one hydrochloride]
[1]
  IC50: 42.3 nM

## COc1cncc(-c2ccc(CN[C@@H]3C[C@H](Nc4ncnc5sc(CC(F)(F)F)cc45)C[C@H](C(=O)N(C)C)C3)cc2)c1 (single isomer, unassigned) [Example 17B, Hydrochloride]
Cell free IC50 (nM)
  IC50: 13.3 nM
